Results: PubChem BioAssay (NCI)
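96-well plates; 48 h exposure; 5 concentrations. Endpoints by linear interpolation between flanking doses. Not reached: highest tested concentration assigned. The concentration for 50% growth inhibition is given as GI50. Definition used: TGI = concentration required for complete inhibition of growth.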

Assays:
Assay in all cases: NCI anticancer screen, dose series, 48 h
[1] = system: NCI-H460 lung
[2] = system: CAKI-1 renal
[3] = system: HOP-92 NSCLC
[4] = system: SR leukemia
[5] = system: 786-0 renal
[6] = system: OVCAR-4 ovarian
[7] = system: K-562 leukemia
[8] = system: SNB-19 CNS
[9] = system: NCI-H226 lung
[10] = system: TK-10 renal
[11] = system: ACHN renal
[12] = system: OVCAR-8 ovarian
[13] = system: HS 578T breast
[14] = system: NCI/ADR-RES ovarian
[15] = system: HT29 colon
[16] = system: U251 CNS
[17] = system: SK-MEL-5 melanoma
[18] = system: MDA-MB-435
[19] = system: HCC-2998 colon
[20] = system: A498 renal
[21] = system: SK-OV-3 ovarian
[22] = system: SK-MEL-28 melanoma
[23] = system: HCT-15 colon
[24] = system: BT-549 breast
[25] = system: SF-539 CNS
[26] = system: M14 melanoma
[27] = system: SK-MEL-2 melanoma
[28] = system: LOX IMVI melanoma
[29] = system: UACC-257 melanoma
[30] = system: HCT-116 colon
[31] = system: SF-268 CNS
[32] = system: OVCAR-5 ovarian
[33] = system: EKVX NSCLC
[34] = system: MCF7 breast
[35] = system: IGROV1 ovarian
[36] = system: UACC-62 melanoma
[37] = system: MOLT-4 leukemia
[38] = system: SN12C renal
[39] = system: MDA-MB-231 breast
[40] = system: OVCAR-3 ovarian
[41] = system: T-47D breast
[42] = system: HOP-62 NSCLC
[43] = system: KM12 colon
[44] = system: NCI-H522 lung
[45] = system: UO-31 renal
[46] = system: DU-145 prostate
[47] = system: SW-620 colon
[48] = system: MALME-3M melanoma
[49] = system: PC-3 prostate
[50] = system: HL-60(TB) leukemia
[51] = system: SNB-75 CNS
[52] = system: SF-295 CNS
[53] = system: NCI-H23 lung
[54] = system: COLO 205 colon

C=C(C)[C@@H]1C/C=C(\COC(=O)[C@H](OC(C)=O)C(NC(=O)c2ccccc2)c2ccccc2)CC[C@H]2O[C@]2(C)CC/C=C(\C)CC1 (stereo partly drawn)
GI50 [1]: 15.5 µM
TGI [1]: > 50 µM
GI50 [2]: 8.64 µM
TGI [2]: 17.8 µM
GI50 [3]: 31.8 µM
TGI [3]: > 50 µM
GI50 [4]: 23.3 µM
TGI [4]: > 50 µM
GI50 [5]: 18.5 µM
TGI [5]: > 50 µM
GI50 [6]: 15.4 µM
TGI [6]: > 50 µM
GI50 [7]: 30.8 µM
TGI [7]: > 50 µM
GI50 [8]: 27.8 µM
TGI [8]: > 50 µM
GI50 [9]: 21.7 µM
TGI [9]: > 50 µM
GI50 [10]: 18.8 µM
TGI [10]: > 50 µM
GI50 [11]: 14.6 µM
TGI [11]: > 50 µM
GI50 [12]: 37.7 µM
TGI [12]: > 50 µM
GI50 [13]: 15.2 µM
TGI [13]: 49.4 µM
GI50 [14]: 18.1 µM
TGI [14]: > 50 µM
GI50 [15]: 13.2 µM
TGI [15]: 31.8 µM
GI50 [16]: 14.9 µM
TGI [16]: > 50 µM
GI50 [17]: 11.8 µM
TGI [17]: 28 µM
GI50 [18]: 16.8 µM
TGI [18]: > 50 µM
GI50 [19]: 15.1 µM
TGI [19]: 45.4 µM
GI50 [20]: 13.1 µM
TGI [20]: 44.5 µM
GI50 [21]: > 50 µM
TGI [21]: > 50 µM
GI50 [22]: 16.6 µM
TGI [22]: > 50 µM
GI50 [23]: 12.4 µM
TGI [23]: > 50 µM
GI50 [24]: 12.9 µM
TGI [24]: 45.4 µM
GI50 [25]: 11.2 µM
TGI [25]: 27.1 µM
GI50 [26]: 20.7 µM
TGI [26]: > 50 µM
GI50 [27]: 16.7 µM
TGI [27]: > 50 µM
GI50 [28]: 8.98 µM
TGI [28]: 19.3 µM
GI50 [29]: 23.3 µM
TGI [29]: > 50 µM
GI50 [30]: 12.3 µM
TGI [30]: 38.1 µM
GI50 [31]: 18.2 µM
TGI [31]: > 50 µM
GI50 [32]: 32.1 µM
TGI [32]: > 50 µM
GI50 [33]: 18.6 µM
TGI [33]: > 50 µM
GI50 [34]: 8.94 µM
TGI [34]: 22.1 µM
GI50 [35]: 17.7 µM
TGI [35]: > 50 µM
GI50 [36]: 16.8 µM
TGI [36]: > 50 µM
GI50 [37]: 17.6 µM
TGI [37]: > 50 µM
GI50 [38]: 10.3 µM
TGI [38]: 23 µM
GI50 [39]: 12 µM
TGI [39]: > 50 µM
GI50 [40]: 12.2 µM
TGI [40]: 44.5 µM
GI50 [41]: 23.1 µM
TGI [41]: > 50 µM
GI50 [42]: 31.2 µM
TGI [42]: > 50 µM
GI50 [43]: 18.7 µM
TGI [43]: > 50 µM
GI50 [44]: 12.1 µM
TGI [44]: > 50 µM
GI50 [45]: 20.6 µM
TGI [45]: > 50 µM
GI50 [46]: 19.3 µM
TGI [46]: > 50 µM
GI50 [47]: 16.8 µM
TGI [47]: 49.7 µM
GI50 [48]: 14.3 µM
TGI [48]: 42.6 µM
GI50 [49]: 13.3 µM
TGI [49]: > 50 µM
GI50 [50]: 4.2 µM
TGI [50]: > 50 µM
GI50 [51]: 17.6 µM
TGI [51]: > 50 µM
GI50 [52]: 13.2 µM
TGI [52]: > 50 µM
GI50 [53]: 19.3 µM
TGI [53]: > 50 µM
GI50 [54]: 11.2 µM
TGI [54]: 25.8 µM
